According to article PMC12655172, “Borylated 5-Membered Ring Iminosugars: Synthesis and Biological Evaluation for Glycosidase Inhibition and Anticancer Properties for Application in Boron Neutron Capture Therapy (BNCT)—Part 2” (Pharmaceuticals, 2025):

Legend:
[1] = test system: T1, trehalase (porcine kidney); test: Glycosidase inhibition (Table 2 panel); assay type: biochemical
T1 construct: purchased Sigma-Aldrich; host or cells: porcine kidney
From the text: (§1) The enzymes α-D-glucosidase (yeast), β-D-glucosidases (almond, bovine liver), α-D-galactosidase (coffee beans), β-D-galactosidase (bovine liver), α-D-mannosidase (Jack bean), β-D-mannosidase (snail), α-L-rhamnosidase (P. decumbens), α-L-fucosidase (bovine kidney), trehalase (porcine kidney), β-D-glucuronidases (E. coli, bovine liver), amyloglucosidase (A. niger), para-nitrophenyl glycosides, and various disaccharides were purchased from Sigma-Aldrich Co (St. Louis, MO, USA).
(§2) Brush border membranes were prepared from the rat small intestine according to the method of Kessler et al., and were assayed at pH 6.8 for rat intestinal maltase using maltose. For rat intestinal maltase, porcine kidney trehalase, and A. niger amyloglucosidase activities, the reaction mixture contained maltose ([…]) and the appropriate amount of enzyme, and the incubations were performed for 10–30 min at 37 °C. The reaction was stopped by heating at 100 °C for 3 min. After centrifugation (600 g; 10 min), the resulting reaction mixture was added to the Glucose CII-test Wako (Wako Pure Chemical Ind., Osaka, Japan). The absorbance at 505 nm was measured to determine the amount of the released D-glucose. Other glycosidase activities were determined using an appropriate para-nitrophenyl glycoside as substrate at the optimum pH of each enzyme. The reaction mixture contained the substrate ([…]) and the appropriate amount of enzyme. The reaction was stopped by the addition of Na2CO3 ([…]). The released para-nitrophenol was measured spectrometrically at 400 nm. All reactions were run in […].

[2] = test system: T2, α-D-galactosidase (coffee beans); test: Glycosidase inhibition (Table 2 panel); assay type: biochemical
T2 construct: purchased Sigma-Aldrich; host or cells: coffee beans
From the text: as §1, §2

[3] = test system: α-D-glucosidase (rat intestinal maltase); test: Glycosidase inhibition (Table 2 panel); assay type: biochemical
From the text: as §1, §2

α-D-glucosidase (rice) = α-D-glucosidase (rice) (Oryza sativa subsp. japonica, UniProt Q653V7); test: Glycosidase inhibition (Table 2 panel); assay type: biochemical
α-D-glucosidase (rice), sequence (Q653V7 34-885): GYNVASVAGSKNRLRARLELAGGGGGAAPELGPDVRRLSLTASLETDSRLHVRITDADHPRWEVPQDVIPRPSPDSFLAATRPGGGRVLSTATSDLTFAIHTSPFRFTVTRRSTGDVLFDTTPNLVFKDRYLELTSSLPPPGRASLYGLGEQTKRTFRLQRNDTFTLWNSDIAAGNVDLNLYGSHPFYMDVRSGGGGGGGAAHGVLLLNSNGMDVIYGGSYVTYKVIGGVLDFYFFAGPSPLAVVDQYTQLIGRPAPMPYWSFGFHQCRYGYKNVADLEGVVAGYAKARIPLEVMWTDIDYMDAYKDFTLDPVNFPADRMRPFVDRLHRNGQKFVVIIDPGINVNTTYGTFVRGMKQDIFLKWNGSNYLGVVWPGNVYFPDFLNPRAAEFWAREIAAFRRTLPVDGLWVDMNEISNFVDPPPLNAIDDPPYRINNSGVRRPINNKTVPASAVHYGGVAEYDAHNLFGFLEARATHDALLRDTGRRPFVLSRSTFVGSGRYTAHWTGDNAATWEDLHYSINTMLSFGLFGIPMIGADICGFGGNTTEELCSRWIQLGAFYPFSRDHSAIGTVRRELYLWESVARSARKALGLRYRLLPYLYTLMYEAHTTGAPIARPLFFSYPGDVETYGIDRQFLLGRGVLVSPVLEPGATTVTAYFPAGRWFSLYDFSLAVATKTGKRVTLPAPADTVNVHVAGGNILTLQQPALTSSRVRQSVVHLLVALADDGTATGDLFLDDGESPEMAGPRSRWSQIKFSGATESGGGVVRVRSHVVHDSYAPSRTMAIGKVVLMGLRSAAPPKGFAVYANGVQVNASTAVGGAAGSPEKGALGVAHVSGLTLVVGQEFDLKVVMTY
From the text: as §1, §2

[4] = test system: T3, α-D-mannosidase (Jack bean); test: Glycosidase inhibition (Table 2 panel); assay type: biochemical
T3 construct: purchased Sigma-Aldrich; host or cells: Jack bean
From the text: as §1, §2

[5] = test system: α-L-rhamnosidase (P. decumbens); test: Glycosidase inhibition (Table 2 panel); assay type: biochemical
From the text: as §1, §2

β-D-glucosidase (almond) = test: Glycosidase inhibition (Table 2 panel); assay type: biochemical
From the text: as §1, §2

[6] = target: T4, β-D-glucosidase (bovine liver) (Bos taurus, UniProt F1MNT6); test: Glycosidase inhibition (Table 2 panel); assay type: biochemical
T4 sequence (F1MNT6 1-469): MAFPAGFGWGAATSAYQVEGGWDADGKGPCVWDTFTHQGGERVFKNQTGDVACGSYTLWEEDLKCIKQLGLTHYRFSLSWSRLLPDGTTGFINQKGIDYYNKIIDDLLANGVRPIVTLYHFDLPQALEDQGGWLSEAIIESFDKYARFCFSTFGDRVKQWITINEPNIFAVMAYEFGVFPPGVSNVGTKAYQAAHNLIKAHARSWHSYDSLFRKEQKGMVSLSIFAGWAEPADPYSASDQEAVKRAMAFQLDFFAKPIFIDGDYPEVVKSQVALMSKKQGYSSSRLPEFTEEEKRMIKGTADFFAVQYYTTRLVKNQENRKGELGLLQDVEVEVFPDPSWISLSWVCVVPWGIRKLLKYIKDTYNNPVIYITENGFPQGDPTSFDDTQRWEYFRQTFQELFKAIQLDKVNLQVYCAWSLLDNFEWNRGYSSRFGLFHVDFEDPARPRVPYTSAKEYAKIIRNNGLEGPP
From the text: as §1, §2

[7] = test system: β-D-glucuronidase (bovine liver); test: Glycosidase inhibition (Table 2 panel); assay type: biochemical
From the text: as §1, §2

β-D-mannosidase (snail) = test: Glycosidase inhibition (Table 2 panel); assay type: biochemical
From the text: as §1, §2

[8] = test system: A2780 (ovarian carcinoma); test: Cancer screening, MTT growth inhibition; assay type: cell-based; details: Homo sapiens; for inhibition at 25 µM: A2780, 25 µM of drug, 72 h, read-out: DOSE SCREEN percentage (%) cell growth inhibition A2780 Ovarian; for GI50: A2780, 72 h, read-out: DOSE RESPONSE GI50 A2780 Ovarian
Protocol: (§3) For Table 4, all test agents were prepared as stock solutions ([…]) in dimethyl sulfoxide (DMSO) and stored at −20 °C. Cell lines used in the study included HT29 (colorectal carcinoma), A2780 (ovarian carcinoma), H460 (lung carcinoma), A431 (skin carcinoma), MiaPaCa-2 (pancreatic carcinoma), and SMA560 (spontaneous murine astrocytoma), together with MCF10A (non-tumour derived normal breast cell line). Cell line sources: the HT29, H460, and MiaPaCa-2, together with MCF10A were purchased from ATCC. The A2780 and A431 were purchased from the European Collection of Cell Culture (ECACC). All cell lines were incubated in a humidified atmosphere 5% CO2 at 37 °C. The cancer cell lines were maintained in Dulbecco’s modified Eagle’s medium (DMEM; Sigma, Truganina, Australia) supplemented with foetal bovine serum (10%), sodium pyruvate ([…]), penicillin (100 IUmL^−1), streptomycin (100 µg mL^−1), and L-glutamine ([…]).
(§4) Growth inhibition was determined by plating cells in duplicate in medium (100 µL) at a density of 2500–4000 cells per well in 96-well plates. On day 0 (24 h after plating), when the cells are in logarithmic growth, medium (100 µL) with or without the test agent was added to each well. […] Each data point is the mean ± the standard error of the mean (SEM) calculated from three replicates which were performed on separate occasions and separate cell line passages.

A431 (skin carcinoma) = test: Cancer screening, MTT growth inhibition; assay type: cell-based; details: Homo sapiens; for inhibition at 25 µM: A-431, 25 µM of drug, 72 h, read-out: DOSE SCREEN percentage (%) cell growth inhibition A431 Skin; for GI50: A-431, 72 h, read-out: DOSE RESPONSE GI50 A431 Skin
Protocol: as §3, §4

H460 (lung carcinoma) = test: Cancer screening, MTT growth inhibition; assay type: cell-based; details: Homo sapiens; for inhibition at 25 µM: NCI-H460, 25 µM of drug, 72 h, read-out: DOSE SCREEN percentage (%) cell growth inhibition H460 Lung; for GI50: NCI-H460, 72 h, read-out: DOSE RESPONSE GI50 H460 Lung
Protocol: as §3, §4

[9] = test system: HT29 (colorectal carcinoma); test: Cancer screening, MTT growth inhibition; assay type: cell-based; details: Homo sapiens; for inhibition at 25 µM: HT-29, 25 µM of drug, 72 h, read-out: DOSE SCREEN percentage (%) cell growth inhibition HT29 Colon; for GI50: HT-29, 72 h, read-out: DOSE RESPONSE GI50 HT29 Colon
Protocol: as §3, §4

[10] = test system: MIA-Pa-Ca2 (pancreatic carcinoma); test: Cancer screening, MTT growth inhibition; assay type: cell-based; details: Homo sapiens; for inhibition at 25 µM: MIA PaCa-2, 25 µM of drug, 72 h, read-out: DOSE SCREEN percentage (%) cell growth inhibition MIA-Pa-Ca2 Pancreatic; for GI50: MIA PaCa-2, 72 h, read-out: DOSE RESPONSE GI50 MIA-Pa-Ca2 Pancreatic
Protocol: as §3, §4

Row | Structure (SMILES) | inhibition % Trehalase Porcine Kidney ([1]; at 100 μM) | inhibition % Trehalase Porcine Kidney ([1]; at 1000 μM) | inhibition % α-D-Galactosidase Coffee Beans ([2]; at 100 μM) | inhibition % α-D-Galactosidase Coffee Beans ([2]; at 1000 μM) | inhibition % α-D-Glucosidase Rat Intestinal Maltase ([3]; at 100 μM) | inhibition % α-D-Glucosidase Rat Intestinal Maltase ([3]; at 1000 μM) | inhibition at 100 µM (α-D-glucosidase (rice)) [%] | inhibition at 1000 µM (α-D-glucosidase (rice)) [%] | inhibition % α-D-Mannosidase Jack Bean ([4]; at 100 μM) | inhibition % α-D-Mannosidase Jack Bean ([4]; at 1000 μM) | inhibition % α-L-Rhamnosidase P. decumbens ([5]; at 100 μM) | inhibition % α-L-Rhamnosidase P. decumbens ([5]; at 1000 μM) | inhibition % β-D-Glucosidase Almond (β-D-glucosidase (almond); at 100 μM) | inhibition % β-D-Glucosidase Almond (β-D-glucosidase (almond); at 1000 μM) | inhibition at 100 µM [6] [%] | inhibition % β-D-Glucuronidase Bovine Liver ([7]; at 100 μM) | inhibition % β-D-Glucuronidase Bovine Liver ([7]; at 1000 μM) | inhibition % β-D-Mannosidase Snail (β-D-mannosidase (snail); at 100 μM) | inhibition % β-D-Mannosidase Snail (β-D-mannosidase (snail); at 1000 μM) | inhibition at 25 µM [8] [%] | further results
1 | CC1(C)O[C@H]2O[C@H]3[C@@H]([C@H]2O1)N(Cc1cccc(B2OC(C)(C)C(C)(C)O2)c1)C[C@H]3O [meta 2, N-(3-Methylphenylboronic acid pinacol ester)-3,6-dideoxy-3,6-imino-1,2-O-isopropylidene-α-D-gulofuranose] | ^cNI ^d(0%) | ^aNI ^b(5.8%) | ^cNI ^d(0%) | ^aNI ^b(0%) | ^cNI ^d(5.8%) | ^aNI ^b(12.4%) | 0 | 2.9 | ^cNI ^d(7.5%) | ^aNI ^b(0%) | ^cNI ^d(1.5%) | ^aNI ^b(0%) | ^cNI ^d(6.8%) | ^aNI ^b(12.6%) | 0 | ^cNI ^d(1.4%) | ^aNI ^b(10.7%) | ^cNI ^d(8.4%) | ^aNI ^b(3.7%) | 25 ± 2 | inhibition at 1000 µM ([6]; at 1000 μM): 32.7%; GI50 [8]: > 50 µM; inhibition at 25 µM (A431 (skin carcinoma)): 8 ± 6%; GI50 (A431 (skin carcinoma)): > 50 µM; inhibition at 25 µM (H460 (lung carcinoma)): 5 ± 2%; GI50 (H460 (lung carcinoma)): > 50 µM; inhibition at 25 µM [9]: 1 ± 10%; GI50 [9]: > 50 µM; inhibition at 25 µM [10]: 19 ± 8%; GI50 [10]: > 50 µM
2 | OB(O)c1cccc(CN2C[C@@H](O)[C@H]3OC(O)[C@H](O)[C@H]32)c1 (stereo partly drawn) [meta 3, N-(3-Methylphenylboronic acid)-3,6-dideoxy-3,6-imino-D-gulofuranose] | ^cNI ^d(20.9%) | ^aNI ^b(0%) | ^cNI ^d(0%) | ^aNI ^b(0.7%) | ^cNI ^d(12.3%) | ^aNI ^b(2.0%) | 0 | 5.9 | ^cNI ^d(0%) | ^aNI ^b(0%) | ^cNI ^d(1.2%) | ^aNI ^b(3.2%) | ^cNI ^d(24.8%) | ^aNI ^b(45.8%) | 8.2 | ^cNI ^d(1.2%) | ^aNI ^b(7.2%) | ^cNI ^d(0%) | ^aNI ^b(0%) | 18 ± 1 | GI50 [8]: > 50 µM; inhibition at 25 µM (A431 (skin carcinoma)): 3%; GI50 (A431 (skin carcinoma)): > 50 µM; inhibition at 25 µM (H460 (lung carcinoma)): 2 ± 2%; GI50 (H460 (lung carcinoma)): > 50 µM; inhibition at 25 µM [9]: < 0%; GI50 [9]: > 50 µM; inhibition at 25 µM [10]: 17 ± 4%; GI50 [10]: > 50 µM
